Data reported in ChEMBL document CHEMBL1201862, “PubChem BioAssay data set” (2004).
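Five compound concentrations were applied to cells in 96-well plates for 48 hours; endpoints were derived by simple linear interpolation of the resulting dose-response curve. GI50 is the concentration that inhibits growth by half.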 Active and inactive are the calls of the source. Rule as the data show it: active = GI50 up to about 1.1 µM and inactive = higher.

Columns and labels:
Test in all cases: NCI-60 cell line screen, 48 h
UACC-62 = tested on: UACC-62
HOP-62 = tested on: HOP-62
RPMI-8226 = tested on: RPMI-8226
HT-29 = tested on: HT-29
U-251 = tested on: U-251
EKVX = tested on: EKVX
SF-539 = tested on: SF-539
HOP-92 = tested on: HOP-92
UO-31 = tested on: UO-31
MDA-MB-231 = tested on: MDA-MB-231
ACHN = tested on: ACHN
SK-MEL-5 = tested on: SK-MEL-5
Hs-578T = tested on: Hs-578T
SN12C = tested on: SN12C
SF-295 = tested on: SF-295
M14 = tested on: M14
Malme-3M = tested on: Malme-3M
SNB-75 = tested on: SNB-75
HCT-15 = tested on: HCT-15
DU-145 = tested on: DU-145
MCF7 = tested on: MCF7
NCI-H460 = tested on: NCI-H460
PC-3 = tested on: PC-3
786-0 = tested on: 786-0
OVCAR-3 = tested on: OVCAR-3
T47D = tested on: T47D
BT-549 = tested on: BT-549
IGROV-1 = tested on: IGROV-1
SW-620 = tested on: SW-620
HCC 2998 = tested on: HCC 2998
OVCAR-5 = tested on: OVCAR-5
CCRF-CEM = tested on: CCRF-CEM
HL-60 = tested on: HL-60
TK-10 = tested on: TK-10
NCI-H226 = tested on: NCI-H226
OVCAR-4 = tested on: OVCAR-4
SK-MEL-28 = tested on: SK-MEL-28
HCT-116 = tested on: HCT-116
NCI-H23 = tested on: NCI-H23
SNB-19 = tested on: SNB-19
CAKI-1 = tested on: CAKI-1
LOX IMVI = tested on: LOX IMVI
KM12 = tested on: KM12
NCI/ADR-RES = tested on: NCI/ADR-RES
A498 = tested on: A498
UACC-257 = tested on: UACC-257
NCI-H522 = tested on: NCI-H522
COLO 205 = tested on: COLO 205
MDA-N = tested on: MDA-N
SR = tested on: SR
A549 = tested on: A549
MOLT-4 = tested on: MOLT-4
SK-MEL-2 = tested on: SK-MEL-2
SF-268 = tested on: SF-268
SK-OV-3 = tested on: SK-OV-3
OVCAR-8 = tested on: OVCAR-8
RXF 393 = tested on: RXF 393
MDA-MB-435 = tested on: MDA-MB-435
K562 = tested on: K562

With `O=C(OC12CC3CC(CC(C3)C1)C2)c1ccc(NCc2cc(O)ccc2O)cc1` the GI50 (UACC-62) was 1.3 µM (inactive), the GI50 (HOP-62) was 4.52 µM (inactive) and the GI50 (RPMI-8226) was 0.0966 µM (active). The GI50 (HT-29) was 1.48 µM (inactive), the GI50 (U-251) was 0.701 µM (active) and the GI50 (EKVX) was 0.843 µM (active). The GI50 (SF-539) was 0.467 µM (active), the GI50 (HOP-92) was 0.34 µM (active) and the GI50 (UO-31) was 0.417 µM (active). The GI50 (MDA-MB-231) was 1.98 µM (inactive), the GI50 (ACHN) was 0.968 µM (active) and the GI50 (SK-MEL-5) was 1.24 µM (inactive). For the same molecule, the GI50 (Hs-578T) was 0.982 µM (active), the GI50 (SN12C) was 1.42 µM (inactive) and the GI50 (SF-295) was 2.29 µM (inactive). The GI50 (M14) was 1.44 µM (inactive), the GI50 (Malme-3M) was 0.625 µM (active) and the GI50 (SNB-75) was 0.607 µM (active). For the same molecule, the GI50 (HCT-15) was 0.435 µM, the GI50 (DU-145) was 3.85 µM (inactive) and the GI50 (MCF7) was 0.48 µM (active). For the same molecule, the GI50 (NCI-H460) was 2.53 µM (inactive), the GI50 (PC-3) was 0.667 µM (active) and the GI50 (786-0) was 1.15 µM (inactive). The GI50 (OVCAR-3) was 0.743 µM (active), the GI50 (T47D) was 0.262 µM (active) and the GI50 (BT-549) was 0.333 µM (active). For the same molecule, the GI50 (IGROV-1) was 0.109 µM (active), the GI50 (SW-620) was 1.67 µM (inactive) and the GI50 (HCC 2998) was 1.7 µM (inactive). The GI50 (OVCAR-5) was 1.73 µM (inactive), the GI50 (CCRF-CEM) was 0.0383 µM (active) and the GI50 (HL-60) was 0.0491 µM (active). The GI50 (TK-10) was 0.885 µM (active), the GI50 (NCI-H226) was 1.33 µM (inactive) and the GI50 (OVCAR-4) was 0.433 µM (active). The GI50 (SK-MEL-28) was 0.489 µM (active), the GI50 (HCT-116) was 1.17 µM (inactive) and the GI50 (NCI-H23) was 1.07 µM (active). The GI50 (SNB-19) was 2.31 µM (inactive), the GI50 (CAKI-1) was 0.301 µM (active) and the GI50 (LOX IMVI) was 0.859 µM (active). The GI50 (KM12) was 1.16 µM (inactive), the GI50 (NCI/ADR-RES) was 0.637 µM (active) and the GI50 (A498) was 1.87 µM (inactive). The GI50 (UACC-257) was 1.24 µM (inactive), the GI50 (NCI-H522) was 0.0776 µM (active) and the GI50 (COLO 205) was 0.285 µM (active). For the same molecule, the GI50 (MDA-N) was 1.32 µM (inactive), the GI50 (SR) was 0.132 µM (active) and the GI50 (A549) was 3.97 µM (inactive). For the same molecule, the GI50 (MOLT-4) was 0.0944 µM (active), the GI50 (SK-MEL-2) was 1.35 µM (inactive) and the GI50 (SF-268) was 1.75 µM (inactive). The GI50 (SK-OV-3) was 2.99 µM (inactive), the GI50 (OVCAR-8) was 1.1 µM (active) and the GI50 (RXF 393) was 0.288 µM (active). The GI50 (MDA-MB-435) was 1.27 µM (inactive) and the GI50 (K562) was 0.622 µM (active).
With `N=C(N)NS(=O)(=O)c1ccc(NNc2c3ccccc3nc3c(C(=O)Nc4ccc(S(N)(=O)=O)cc4)cccc23)cc1` the GI50 (UACC-62) was 18.7 µM (inactive), the GI50 (HOP-62) was 53.7 µM (inactive) and the GI50 (RPMI-8226) was 17.8 µM (inactive). The GI50 (HT-29) was 23.4 µM (inactive), the GI50 (U-251) was 7.59 µM (inactive) and the GI50 (EKVX) was 80.2 µM (inactive). For the same molecule, the GI50 (SF-539) was 26.6 µM (inactive), the GI50 (HOP-92) was 15.1 µM (inactive) and the GI50 (UO-31) was > 100 µM (inactive). For the same molecule, the GI50 (MDA-MB-231) was 27.9 µM (inactive), the GI50 (ACHN) was 52.7 µM (inactive) and the GI50 (SK-MEL-5) was 27.3 µM (inactive). The GI50 (Hs-578T) was 18.4 µM (inactive), the GI50 (SN12C) was 43.8 µM (inactive) and the GI50 (SF-295) was 48.2 µM (inactive). For the same molecule, the GI50 (M14) was 83.4 µM (inactive), the GI50 (Malme-3M) was 20.6 µM (inactive) and the GI50 (SNB-75) was 26.4 µM (inactive). The GI50 (HCT-15) was > 100 µM, the GI50 (DU-145) was 94 µM (inactive) and the GI50 (MCF7) was 8.47 µM (inactive). The GI50 (NCI-H460) was 19.7 µM (inactive), the GI50 (PC-3) was 36.1 µM (inactive) and the GI50 (786-0) was 21.7 µM (inactive). For the same molecule, the GI50 (OVCAR-3) was 22.9 µM (inactive), the GI50 (T47D) was 4.49 µM (inactive) and the GI50 (BT-549) was 19.5 µM (inactive). For the same molecule, the GI50 (IGROV-1) was 28.8 µM (inactive), the GI50 (SW-620) was 22.1 µM (inactive) and the GI50 (HCC 2998) was 19.5 µM (inactive). The GI50 (OVCAR-5) was 76 µM (inactive), the GI50 (CCRF-CEM) was 8.24 µM (inactive) and the GI50 (HL-60) was 23.9 µM (inactive). The GI50 (TK-10) was > 100 µM (inactive), the GI50 (NCI-H226) was 92 µM (inactive) and the GI50 (OVCAR-4) was 51.2 µM (inactive). The GI50 (SK-MEL-28) was 68.1 µM (inactive), the GI50 (HCT-116) was 28.9 µM (inactive) and the GI50 (NCI-H23) was 51.1 µM (inactive). For the same molecule, the GI50 (SNB-19) was 22.9 µM (inactive), the GI50 (CAKI-1) was > 100 µM (inactive) and the GI50 (LOX IMVI) was 10.4 µM (inactive). The GI50 (KM12) was 30.8 µM (inactive), the GI50 (NCI/ADR-RES) was > 100 µM (inactive) and the GI50 (A498) was > 100 µM (inactive). The GI50 (UACC-257) was > 100 µM (inactive), the GI50 (NCI-H522) was 14.7 µM (inactive) and the GI50 (COLO 205) was 31 µM (inactive). The GI50 (MDA-N) was 76.6 µM (inactive), the GI50 (SR) was 5.37 µM (inactive) and the GI50 (A549) was > 100 µM (inactive). For the same molecule, the GI50 (MOLT-4) was 5.75 µM (inactive), the GI50 (SK-MEL-2) was 9.02 µM (inactive) and the GI50 (SF-268) was 16.8 µM (inactive). For the same molecule, the GI50 (SK-OV-3) was > 100 µM (inactive), the GI50 (OVCAR-8) was 36.1 µM (inactive) and the GI50 (RXF 393) was 40.6 µM (inactive). For the same molecule, the GI50 (MDA-MB-435) was 72.8 µM (inactive) and the GI50 (K562) was 19.9 µM (inactive).
